Laboratory results: PubChem BioAssay (NCI)
Where “and” joins values, the source holds several entries; their conditions need not be identical. Identical values can stand only once.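 Cultured in 96-well plates, cells were exposed to test compound for 48 hours across five concentrations. Here, GI50 denotes the concentration required for 50% inhibition of growth. TGI: total growth inhibition.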

Legend:
Assay in all cases: DTP human tumour cell line panel, 48 h
SNB-19 CNS = tested on: SNB-19 CNS
MDA-MB-435 = tested on: MDA-MB-435
NCI-H226 lung = tested on: NCI-H226 lung
HT29 colon = tested on: HT29 colon
SK-MEL-5 melanoma = tested on: SK-MEL-5 melanoma
NCI-H23 lung = tested on: NCI-H23 lung
K-562 leukemia = tested on: K-562 leukemia
EKVX NSCLC = tested on: EKVX NSCLC
SNB-75 CNS = tested on: SNB-75 CNS
HCC-2998 colon = tested on: HCC-2998 colon
MALME-3M melanoma = tested on: MALME-3M melanoma
MOLT-4 leukemia = tested on: MOLT-4 leukemia
DU-145 prostate = tested on: DU-145 prostate
SF-295 CNS = tested on: SF-295 CNS
IGROV1 ovarian = tested on: IGROV1 ovarian
CAKI-1 renal = tested on: CAKI-1 renal
BT-549 breast = tested on: BT-549 breast
U251 CNS = tested on: U251 CNS
HCT-15 colon = tested on: HCT-15 colon
SK-MEL-28 melanoma = tested on: SK-MEL-28 melanoma
HL-60(TB) leukemia = tested on: HL-60(TB) leukemia
OVCAR-5 ovarian = tested on: OVCAR-5 ovarian
SK-MEL-2 melanoma = tested on: SK-MEL-2 melanoma
ACHN renal = tested on: ACHN renal
PC-3 prostate = tested on: PC-3 prostate
UACC-257 melanoma = tested on: UACC-257 melanoma
A498 renal = tested on: A498 renal
KM12 colon = tested on: KM12 colon
MCF7 breast = tested on: MCF7 breast
NCI-H522 lung = tested on: NCI-H522 lung
RPMI-8226 leukemia = tested on: RPMI-8226 leukemia
NCI/ADR-RES ovarian = tested on: NCI/ADR-RES ovarian
HOP-92 NSCLC = tested on: HOP-92 NSCLC
SF-539 CNS = tested on: SF-539 CNS
LOX IMVI melanoma = tested on: LOX IMVI melanoma
786-0 renal = tested on: 786-0 renal
NCI-H460 lung = tested on: NCI-H460 lung
UACC-62 melanoma = tested on: UACC-62 melanoma
UO-31 renal = tested on: UO-31 renal
M14 melanoma = tested on: M14 melanoma
OVCAR-3 ovarian = tested on: OVCAR-3 ovarian
OVCAR-8 ovarian = tested on: OVCAR-8 ovarian
RXF 393 renal = tested on: RXF 393 renal
SF-268 CNS = tested on: SF-268 CNS
SN12C renal = tested on: SN12C renal
HOP-62 NSCLC = tested on: HOP-62 NSCLC
MDA-MB-231 breast = tested on: MDA-MB-231 breast
SW-620 colon = tested on: SW-620 colon
HCT-116 colon = tested on: HCT-116 colon
OVCAR-4 ovarian = tested on: OVCAR-4 ovarian
HS 578T breast = tested on: HS 578T breast
T-47D breast = tested on: T-47D breast
SK-OV-3 ovarian = tested on: SK-OV-3 ovarian
COLO 205 colon = tested on: COLO 205 colon
TK-10 renal = tested on: TK-10 renal
CCRF-CEM leukemia = tested on: CCRF-CEM leukemia
A549 NSCLC = tested on: A549 NSCLC
SR leukemia = tested on: SR leukemia

Structure (SMILES): Nc1c2ccccc2nc2ccccc12 (tested in a mixture with another compound)
- GI50 (SNB-19 CNS): 2640 nM
- TGI (SNB-19 CNS): 15700 nM
- GI50 (MDA-MB-435): 2570 nM
- TGI (MDA-MB-435): 9000 nM
- GI50 (NCI-H226 lung): 1170 nM
- TGI (NCI-H226 lung): 3030 nM
- GI50 (HT29 colon): 1080 nM
- TGI (HT29 colon): 3480 nM
- GI50 (SK-MEL-5 melanoma): 1600 nM
- TGI (SK-MEL-5 melanoma): 3010 nM
- GI50 (NCI-H23 lung): 1940 nM
- TGI (NCI-H23 lung): 5680 nM
- GI50 (K-562 leukemia): 3810 nM
- TGI (K-562 leukemia): 12100 nM
- GI50 (EKVX NSCLC): 2010 nM
- TGI (EKVX NSCLC): 7650 nM
- GI50 (SNB-75 CNS): 3180 nM
- TGI (SNB-75 CNS): 8440 nM
- GI50 (HCC-2998 colon): 1850 nM
- TGI (HCC-2998 colon): 4600 nM
- GI50 (MALME-3M melanoma): 2340 nM
- TGI (MALME-3M melanoma): 5280 nM
- GI50 (MOLT-4 leukemia): 2320 nM
- TGI (MOLT-4 leukemia): 13100 nM
- GI50 (DU-145 prostate): 2380 nM
- TGI (DU-145 prostate): 6510 nM
- GI50 (SF-295 CNS): 2100 nM
- TGI (SF-295 CNS): 10500 nM
- GI50 (IGROV1 ovarian): 2720 nM
- TGI (IGROV1 ovarian): 7890 nM
- GI50 (CAKI-1 renal): 1830 nM
- TGI (CAKI-1 renal): 5110 nM
- GI50 (BT-549 breast): 4420 nM
- TGI (BT-549 breast): 17600 nM
- GI50 (U251 CNS): 2680 nM
- TGI (U251 CNS): 10900 nM
- GI50 (HCT-15 colon): 2030 nM
- TGI (HCT-15 colon): 10400 nM
- GI50 (SK-MEL-28 melanoma): 1990 nM
- TGI (SK-MEL-28 melanoma): 3860 nM
- GI50 (HL-60(TB) leukemia): 3240 nM
- TGI (HL-60(TB) leukemia): 8040 nM
- GI50 (OVCAR-5 ovarian): 2960 nM
- TGI (OVCAR-5 ovarian): 13400 nM
- GI50 (SK-MEL-2 melanoma): 2160 nM
- TGI (SK-MEL-2 melanoma): 4230 nM
- GI50 (ACHN renal): 779 nM
- TGI (ACHN renal): 8720 nM
- GI50 (PC-3 prostate): 2440 nM
- TGI (PC-3 prostate): 11100 nM
- GI50 (UACC-257 melanoma): 1870 nM
- TGI (UACC-257 melanoma): 4480 nM
- GI50 (A498 renal): 1120 nM
- TGI (A498 renal): 2620 nM
- GI50 (KM12 colon): 2220 nM
- TGI (KM12 colon): 6770 nM
- GI50 (MCF7 breast): 1590 nM
- TGI (MCF7 breast): 9720 nM
- GI50 (NCI-H522 lung): 1170 nM
- TGI (NCI-H522 lung): 2730 nM
- GI50 (RPMI-8226 leukemia): 3860 nM
- TGI (RPMI-8226 leukemia): > 100000 nM
- GI50 (NCI/ADR-RES ovarian): 1740 nM
- TGI (NCI/ADR-RES ovarian): 6000 nM
- GI50 (HOP-92 NSCLC): 1840 nM
- TGI (HOP-92 NSCLC): 6980 nM
- GI50 (SF-539 CNS): 2440 nM
- TGI (SF-539 CNS): 8260 nM
- GI50 (LOX IMVI melanoma): 1870 nM
- TGI (LOX IMVI melanoma): 5940 nM
- GI50 (786-0 renal): 2450 nM
- TGI (786-0 renal): 9400 nM
- GI50 (NCI-H460 lung): 2120 nM
- TGI (NCI-H460 lung): 8990 nM
- GI50 (UACC-62 melanoma): 1620 nM
- TGI (UACC-62 melanoma): 3740 nM
- GI50 (UO-31 renal): 1410 nM
- TGI (UO-31 renal): 3840 nM
- GI50 (M14 melanoma): 1870 nM
- TGI (M14 melanoma): 3920 nM
- GI50 (OVCAR-3 ovarian): 2290 nM
- TGI (OVCAR-3 ovarian): 6150 nM
- GI50 (OVCAR-8 ovarian): 891 nM
- TGI (OVCAR-8 ovarian): 6440 nM
- GI50 (RXF 393 renal): 1280 nM
- TGI (RXF 393 renal): 3270 nM
- GI50 (SF-268 CNS): 2130 nM
- TGI (SF-268 CNS): 6080 nM
- GI50 (SN12C renal): 1530 nM
- TGI (SN12C renal): 12200 nM
- GI50 (HOP-62 NSCLC): 1540 nM
- TGI (HOP-62 NSCLC): 4010 nM
- GI50 (MDA-MB-231 breast): 1500 nM
- TGI (MDA-MB-231 breast): 5840 nM
- GI50 (SW-620 colon): 1440 nM
- TGI (SW-620 colon): 10100 nM
- GI50 (HCT-116 colon): 849 nM
- TGI (HCT-116 colon): 8480 nM
- GI50 (OVCAR-4 ovarian): 1840 nM
- TGI (OVCAR-4 ovarian): 6900 nM
- GI50 (HS 578T breast): 3060 nM
- TGI (HS 578T breast): 17400 nM
- GI50 (T-47D breast): 1870 nM
- TGI (T-47D breast): 5980 nM
- GI50 (SK-OV-3 ovarian): 2390 nM
- TGI (SK-OV-3 ovarian): 10500 nM
- GI50 (COLO 205 colon): 753 nM
- TGI (COLO 205 colon): 2080 nM
- GI50 (TK-10 renal): 1970 nM
- TGI (TK-10 renal): 5340 nM
- GI50 (CCRF-CEM leukemia): 2720 nM
- TGI (CCRF-CEM leukemia): 77300 nM

Structure (SMILES): C/C=C/C1=CN2C(=O)c3cc(OC4OC(C)C(NC)C(C)(O)C4O)c(C)c(O)c3N=C[C@@H]2C1 (some centres undefined)
- GI50 (MDA-MB-435): 81.9 nM
- TGI (MDA-MB-435): 286 nM
- GI50 (NCI-H226 lung): 124 nM
- TGI (HT29 colon): 10200 nM
- GI50 (NCI-H23 lung): 78.4 nM and < 10 nM
- GI50 (K-562 leukemia): 43.1 nM and < 10 nM
- TGI (K-562 leukemia): > 100000 nM
- TGI (A549 NSCLC): 24800 nM
- GI50 (MOLT-4 leukemia): 41.3 nM and < 10 nM
- GI50 (DU-145 prostate): 61.7 nM and < 10 nM
- TGI (DU-145 prostate): 10700 nM
- GI50 (SF-295 CNS): < 10 nM
- TGI (SF-295 CNS): > 100000 nM
- GI50 (CAKI-1 renal): 27.9 nM and < 10 nM
- GI50 (U251 CNS): 43 nM and < 10 nM
- TGI (U251 CNS): 12500 nM
- TGI (HCT-15 colon): 11000 nM
- GI50 (HL-60(TB) leukemia): 60.3 nM
- TGI (HL-60(TB) leukemia): 340 nM
- TGI (OVCAR-5 ovarian): 2920 nM
- GI50 (ACHN renal): 71 nM and < 10 nM
- TGI (PC-3 prostate): 16500 nM
- GI50 (A498 renal): 28.2 nM and < 10 nM
- TGI (A498 renal): 88.7 nM and < 10 nM
- TGI (MCF7 breast): 13400 nM
- GI50 (NCI-H522 lung): 119 nM
- TGI (NCI-H522 lung): 302 nM
- GI50 (RPMI-8226 leukemia): 45.7 nM and < 10 nM
- TGI (NCI/ADR-RES ovarian): 4710 nM
- GI50 (SF-539 CNS): 74.3 nM and < 10 nM
- GI50 (LOX IMVI melanoma): 61.9 nM and < 10 nM
- TGI (LOX IMVI melanoma): 4060 nM
- GI50 (786-0 renal): 65 nM
- GI50 (NCI-H460 lung): 37.6 nM and < 10 nM
- GI50 (UACC-62 melanoma): 91.8 nM and < 10 nM
- GI50 (UO-31 renal): 92.6 nM and < 10 nM
- GI50 (M14 melanoma): 58.9 nM
- TGI (M14 melanoma): 213 nM
- GI50 (OVCAR-3 ovarian): 203 nM
- TGI (OVCAR-8 ovarian): > 100000 nM
- GI50 (SF-268 CNS): 34.2 nM and < 10 nM
- TGI (SN12C renal): 1210 nM
- GI50 (SR leukemia): 25.3 nM and < 10 nM
- GI50 (SW-620 colon): 95.1 nM and < 10 nM
- TGI (SW-620 colon): 10200 nM
- TGI (HCT-116 colon): 11900 nM
- TGI (OVCAR-4 ovarian): 20700 nM
- TGI (T-47D breast): 15300 nM
- TGI (SK-OV-3 ovarian): 12400 nM
- GI50 (TK-10 renal): 326 nM
- GI50 (CCRF-CEM leukemia): 63.9 nM and < 10 nM
- TGI (CCRF-CEM leukemia): 41500 nM
